Measured values as given in patent US20260001892A1, “COMPOUND FOR REGULATING AND CONTROLLING ACTIVITY OF 15-PGDH AND PREPARATION METHOD THEREFOR” (SCINNOHUB PHARMACEUTICAL CO., LTD., priority 2022, published 2026).

Target: 15-PGDH (Homo sapiens (Human), UniProt P15428)
Test: Detection of activity of 15-PGDH enzyme
Format: biochemical
Conditions: inhibitory activity against 15-PGDH enzyme; substrates β-NAD and PGF2α; fluorescence Ex/Em=340/450
Method: • a. A solution of pH 7.5 containing 50 mM Tris-HCl, 0.01% Tween 20 was prepared with ultrapure water as a reaction buffer; • b. A 10 mM mother liquor of the compound to be tested was prepared with DMSO, and then the reaction buffer was used to dilute the mother liquor of the compound to be tested to obtain solution 1 of the compound to be tested at a concentration of 40,000 nM, and then the solution 1 of the compound to be tested was serially diluted into solutions 2-9 (or 2-12) of the compound to be tested at 9 (or 11) concentrations with a gradient difference of three-fold. 5 μL of each concentration of solutions of the compound to be tested was respectively taken and added into a 384-well plate as test wells; • c. 5 μL of the reaction buffer was then added to the blank wells of the 384-well plate as positive control and blank control wells, respectively; • d. The reaction buffer was used to prepare a 15-PGDH protein solution at a concentration of 5 ng/μL, 5 μL of the 15-PGDH protein solution was taken and added to the test wells and positive control wells, and meanwhile 5 μL of the reaction buffer was added to the blank control wells, then the plate was centrifuged at 2000 rpm for 30 seconds; • e. The reaction buffer was used to prepare 5 mM $3-NAD and 2 mM PGF2α, respectively, which were mixed at 1:1 by volume to obtain a substrate mixture, 10 μL of the substrate mixture was taken and added to the test wells, positive control wells and blank control wells to start the reaction; • f. The fluorescence signal value (Ex/Em=340/450) of each well was detected continuously by using a multifunctional microplate reader.
• a) Continuous fluorescence signal values were analyzed by using the “kinetic calculations-slope calculation method” in the PHERAstar Data analysis software to obtain the slope of each test well; • b) The inhibition rate % was calculated by using the following formula: inhibition rate %=[1−(slope of test well-signal value of positive control well)/(signal value of blank control well-average signal value of positive control well)]×100%. • c) Calculation of IC50 and plotting of inhibition rate-dose curves: IC50 values were calculated by fitting compound concentrations and corresponding inhibition rates with a nonlinear regression (dose response-variable slope) via using GraphPad Prism 6.0. The formula was shown below:
Y=Bottom+(Top−Bottom)/(1+10^((Log IC50−X)*HillSlope)), wherein X is a log value of a concentration of the compound, and Y is inhibition rate %.

Chain of 15-PGDH (P15428 whole entry): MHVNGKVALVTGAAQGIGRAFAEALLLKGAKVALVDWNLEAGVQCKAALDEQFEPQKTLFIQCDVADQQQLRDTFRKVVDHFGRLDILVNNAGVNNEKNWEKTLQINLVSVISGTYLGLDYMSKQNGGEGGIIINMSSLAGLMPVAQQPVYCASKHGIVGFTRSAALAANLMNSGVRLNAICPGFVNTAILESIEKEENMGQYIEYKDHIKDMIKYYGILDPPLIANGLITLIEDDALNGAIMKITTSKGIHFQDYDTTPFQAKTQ

Row | IC50 [nM] | SMILES
1 | < 3 | O=C(c1sc2nc(-c3cccs3)cnc2c1C(F)(F)F)N1CCCCC1 [Example 69]
2 | 3 to 10 | CN1Cc2cc(-c3cnc4c(C(F)(F)F)c(C(=O)N5CCCCC5)sc4n3)ccc2C1=O [Example 94]
3 | < 3 | CN1Cc2cc(-c3cnc4c(C5CC5)c(C(=O)N5CCCCC5)sc4n3)ccc2C1=O [Example 32]
4 | 10 to 20 | COc1cc(-c2cnc3c(C#N)c(C(=O)N4CCCCC4)sc3n2)ccn1 [Example 55]
5 | 3 to 10 | COc1ncc(-c2cnc3c(C(F)(F)F)c(C(=O)N4CCCCC4)sc3n2)cn1 [Example 64, (3-(2-methoxypyrimidin-5-yl)-7-(trifluoromethyl)thieno[2,3-b]pyrazin-6-yl)(piperidin-1-yl)methanone]
6 | 3 to 10 | N#Cc1c(C(=O)N2CCCCC2)sc2nc(-c3ccc4nccnc4c3)cnc12 [Example 45]
7 | 3 to 10 | CCc1c(C(=O)N2CCCCC2)sc2nc(-c3ccccc3)cnc12 [Example 97]
8 | 3 to 10 | Cn1cc(-c2cnc3c(C(F)(F)F)c(C(=O)N4CCCCC4)sc3n2)ccc1=O [Example 71]
9 | 3 to 10 | O=C(c1sc2nc(-c3ccnc(F)c3)cnc2c1C1CC1)N1CCCCC1 [Example 4]
10 | < 3 | O=C(c1sc2nc(-c3ccccc3)cnc2c1Br)N1CCCCC1 [Example 98]
11 | 3 to 10 | Cn1cc(-c2cnc3c(C(F)(F)F)c(C(=O)N4CCCCC4)sc3n2)cn1 [Example 68]
12 | < 3 | O=C(c1sc2nc(-c3cccnc3)cnc2c1C(F)(F)F)N1CCCCC1 [Example 74]
13 | 10 to 20 | CN(C)c1ncc(-c2cnc3c(C(F)(F)F)c(C(=O)N4CCCCC4)sc3n2)cn1 [Example 88]
14 | 10 to 20 | COc1ccc(-c2cnc3c(C4CC4)c(C(=O)N4CCCCC4)sc3n2)cn1 [Example 23]
15 | 3 to 10 | COc1c(C(=O)N2CCCCC2)sc2nc(-c3ccccc3)cnc12 [Example 95]
16 | 10 to 20 | Cc1noc(C)c1-c1cnc2c(C(F)(F)F)c(C(=O)N3CCCCC3)sc2n1 [Example 70]
17 | 10 to 20 | O=C(c1sc2nc(-c3cnc(N4CCOCC4)nc3)cnc2c1C(F)(F)F)N1CCCCC1 [Example 89]
18 | 3 to 10 | N#Cc1c(C(=O)N2CCCCC2)sc2nc(-c3cnc(N4CCOCC4)nc3)cnc12 [Example 59]
19 | 3 to 10 | Nc1cc(-c2cnc3c(C(F)(F)F)c(C(=O)N4CCCCC4)sc3n2)ccn1 [Example 83]
20 | 10 to 20 | O=C(c1sc2nc(-c3ccc4c(c3)OCCO4)cnc2c1C(F)(F)F)N1CCCCC1 [Example 76]
21 | < 3 | O=C(c1sc2nc(-c3ccccc3)cnc2c1C1CC1)N1CCCCC1 [Example 1, (7-cyclopropyl-3-phenylthieno[2,3-b]pyrazin-6-yl)(piperidin-1-yl)methanone]

Row | IC50 [nM] | SMILES
22 | 3 to 10 | O=C(c1sc2nc(-c3ccc(F)nc3)cnc2c1C(F)(F)F)N1CCCCC1 [Example 79]
23 | < 3 | Cc1cc(-c2cnc3c(C(F)(F)F)c(C(=O)N4CCCCC4)sc3n2)ccn1 [Example 87]
24 | 10 to 20 | COc1ncc(-c2cnc3c(C#N)c(C(=O)N4CCCCC4)sc3n2)cn1 [Example 34, 3-(2-methoxypyrimidin-5-yl)-6-(piperidine-1-carbonyl)thieno[2,3-b]pyrazine-7-carbonitrile]
25 | 3 to 10 | O=C(c1sc2nc(-c3ccc4ncsc4c3)cnc2c1C1CC1)N1CCCCC1 [Example 13]
26 | < 3 | Cc1ccc(-c2cnc3c(C4CC4)c(C(=O)N4CCCCC4)sc3n2)cn1 [Example 24]
27 | 3 to 10 | O=C(c1sc2nc(-c3cncs3)cnc2c1C(F)(F)F)N1CCCCC1 [Example 86]
28 | 10 to 20 | O=C(c1sc2nc(-c3ccc4ncsc4c3)cnc2c1C(F)(F)F)N1CCCCC1 [Example 78]
29 | 3 to 10 | N#Cc1c(C(=O)N2CCCCC2)sc2nc(-c3ccc4ncsc4c3)cnc12 [Example 48]
30 | 10 to 20 | CC(C)c1c(C(=O)N2CCCCC2)sc2nc(-c3ccccc3)cnc12 [Example 99]
31 | 10 to 20 | Cc1c(C(=O)N2CCCCC2)sc2nc(-c3ccccc3)cnc12 [Example 96]
32 | < 3 | O=C(c1sc2nc(-c3ccc4nccn4c3)cnc2c1C1CC1)N1CCCCC1 [Example 12]
33 | 3 to 10 | N#Cc1c(C(=O)N2CCCCC2)sc2nc(-c3cncnc3)cnc12 [Example 61]
34 | 3 to 10 | O=C(c1sc2nc(-c3ccc4c(c3)OCCO4)cnc2c1C1CC1)N1CCCCC1 [Example 21]
35 | < 3 | O=C(c1sc2nc(-c3cncnc3)cnc2c1C1CC1)N1CCCCC1 [Example 22]
36 | 3 to 10 | O=C(c1sc2nc(-c3cncnc3)cnc2c1C(F)(F)F)N1CCCCC1 [Example 91]
37 | 10 to 20 | N#Cc1ccc(-c2cnc3c(C(F)(F)F)c(C(=O)N4CCCCC4)sc3n2)cn1 [Example 67]
38 | 3 to 10 | Cc1cc(-c2cnc3c(C4CC4)c(C(=O)N4CCCCC4)sc3n2)ccn1 [Example 2, (7-cyclopropyl-3-(2-methylpyridin-4-yl)thieno[2,3-b]pyrazin-6-yl)(piperidin-1-yl)methanone]
39 | 3 to 10 | O=C(c1sc2nc(-c3ccc4nccn4c3)cnc2c1C(F)(F)F)N1CCCCC1 [Example 77]
40 | 3 to 10 | O=C(c1sc2nc(-c3ccc(F)nc3)cnc2c1C1CC1)N1CCCCC1 [Example 27]
41 | < 3 | O=C(c1sc2nc(-c3cnc(N4CCOCC4)nc3)cnc2c1C1CC1)N1CCCCC1 [Example 3]
42 | 50 to 100 | O=C(c1sc2nc(-c3ccccc3)cnc2c1O)N1CCCCC1 [Example 101]
